According to US20100093641A1, “SILK PROTEIN-MIMICKING PEPTIDES AND COMPOSITIONS FOR PREVENTING OR TREATING CRANIAL NEUROPATHIES COMPRISING THE SAME” (BRAINGUARD CO.,LTD., priority 2006, published 2010):
No end group written: not given here.

Key:
dopaminergic neurons = assay: Dopaminergic neuronal cell death induced by 6-OHDA, methyl green histochemical staining; format: in vivo; conditions: 6-OHDA injected mice; SMPs 5 mg/kg intraperitoneally for 2 weeks; FIG. 1
Protocol: To analyze neuroprotective effects of the present peptides SMPs, their influence on the death of dopaminergic neurons, a main cause of Parkinson's disease, was tested. 6-OHDA (6-hydroxydopamine) was injected into brain tissues using a stereotaxic system and the death of dopaminergic neurons was observed by histochemcial staining.
5-week old male mice (SAMTAKO, Korea) were used. Four-week old mice were purchased and adapted for one week, followed by inducing the death of neuronal cells using a stereotaxic system (KOFT, CA, USA). In these experiments, 6-OHDA (3 μg/μl in normal saline) was injected into the desired region (0.0 mm posterior to bregma; 2.0 mm lateral to midline; 3.0 mm ventral to the dura) by use of the stereotaxic system, resulting in establishment of animal models. 6-OHDA was injected into substantial nigra in which neurites of dopminergic neurons are connected and sustained death of dopminergic neurons is well induced. After injection of 6-OHDA, 5 mg/kg of SMPs were intraperitoneally administered for 2 weeks. Thereafter, the test mice were fixed using 4% paraformaldehyde. Following the dissection of brain tissues from test mice, they were washed with PBS containing 4% paraformaldehyde for 24 hr and then dehydrated for 4 days using 15%, 20%, 25% and 30% sucrose solutions. The brain tissues were sliced by a freezing microtome. […]

[1] = test system: PD animal models having apoptotic dopaminergic neuronal cells by 6-OHDA; assay: Amphetamine-induced asymmetric rotation in 6-OHDA Parkinson's disease animal models; format: in vivo; conditions: 6-OHDA mice; SMPs 5 mg/kg intraperitoneally for 2 weeks; FIG. 2
Protocol: The protection efficacy of the present peptides was tested by behavior experiments using animal models. The mice with damaged dopaminergic neurons by 6-OHDA were administered with amphetamine to induce asymmetric rotation. Then, the present peptides were examined to recover normal states.
5-week old male mice (SAMTAKO, Korea) were used. Four-week old mice were purchased and adapted for one week, followed by establishing animal models using a stereotaxic system (KOFT, CA, USA). In these experiments, 6-OHDA (3 μg/μl in normal saline) was injected into the desired region (0.0 mm posterior to bregma; 2.0 mm lateral to midline; 3.0 mm ventral to the dura) by use of the stereotaxic system, resulting in establishment of animal models. 6-OHDA was injected into substantial nigra in which neurites of dopminergic neurons are connected and sustained death of dopminergic neurons is well induced. Two weeks after 6-OHDA injection, animals were tested for amphetamine-induced turning behavior (amphetamine at 0.1 mg/kg i.p.). The mice were tested for […]. Animals with net rotational asymmetry of at least 400 full turns were selected for test. 5 mg/kg of SMPs were intraperitoneally administered for 2 weeks and their effects were examined by behavior tests. The asymmetric rotation was rapidly relieved with the lapse of time.

[2] = test system: Alzheimer's disease animal models; assay: Passive avoidance test after amyloid beta injection; format: in vivo, rat; conditions: amyloid beta injected; 5 mg/kg i.p. for 2 weeks; FIG. 4
Protocol: This experiment was carried out according to the passive avoidance test to examine whether the SMPs prevents the declines in learning and memory abilities by neurotoxic substances. Before performing learning test, the amyloid beta protein was injected into animals through the ventral lateral region using a stereotaxic system, resulting in establishing Alzheimer's disease animal models. 3-day later, 5 mg/kg of SMPs were intraperitoneally administered for 2 weeks. Automated shuttle box (Model PACS-30, Columbus Instruments International Company) was used as test device. The shuttle box was divided into two rooms with the same area (19″ L×9″ W×10.875″ H) by middle door (3″ L×2.625″ W), and their floors were equipped with current-generating device. Each room might be lighted a 20 W light bulb on hinged plexiglass lid. A white rat might enter a dark room through the door. Noise was control below 60 dB and the test was performed in the dark room. The rat was initially placed in a lighted room and moved to a dark room when the door was opened. At this time, the door was automatically closed and light was turned off. […] Two weeks after injection of the amyloid beta protein through the ventral lateral region (8 nmol/ 5 μl in normal saline), the rat was placed in the lighted room, and time required for the rat to move to the dark room was measured. […]

SK-N-SH cells [3] = assay: MTT reduction cell viability against amyloid beta; format: cell-based, human; conditions: 10 fM for 2 hr before amyloid beta, 48 hr; FIG. 6b
Description: The survival rate and nuclear fragmentation of neuronal cells indicating apoptosis of neuron were examined to verify the neuroprotective effects of SMPs against neurotoxic effects of the amyloid beta protein. For identifying mechanisms governing the protective effects against amyloid beta in animal tests, neurotoxic effects and nuclear damages in neuronal cell lines were examined. The substance “cosmo” used in this experiment was obtained by a preparation process identical to that for the substance MD.
The MTT reduction analysis was carried out. The human neuroblastoma cells, SK—N—SH cells (ATCC) were plated on PEI-coated 96-well plates at a density of 40,000 cells/well. The cells were cultured in DMEM supplemented with 10% FBS (fetal bovine serum). 2-hr before experiments, the medium was changed with low serum medium (DMEM with 1% FBS) and the cells were incubated with each test substance. […] Formazan precipitates formed by MTT reduction were dissolved in the solution (0.1 N HCl in anhydrous isopropanol), and absorbance at 570 nm was determined by ELISA
Reader. The value of the control group (only containing solvent) was determined as 100% and that of 0.9% Triton X-100-treated group as 0%. The value of each sample was relatively determined with referring the reference values.

SK-N-SH cells [4] = assay: Nuclear fragmentation by Hoechst 33258 staining against amyloid beta; format: cell-based, human; conditions: 10 fM for 2 hr, then 20 μM amyloid beta for 24 hr; FIG. 6a
Protocol: The morphological changes of nuclear chromosomes by amyloid beta were observed by staining with DNA-binding fluorochrome bis-benz (Hoechst 33258 dye). SK—N—SH cells were incubated with 10 fM SMPs for 2 hr and then with 20 μM amyloid beta for 24 hr. 0.5-3.0×10^6 cells treated were centrifuged at 300×g for 10 min and washed with PBS, followed by fixation with 50 μl paraformaldehyde for 10 min at room temperature. After washing with PBS, cells were incubated with 16 μg/ml bis-benzimide in PBS (15 μl) for 15 min at room temperature and their 10 μl-aliquot was placed on a slid glass, followed by the observation of apoptotic nuclear chromosome under a fluorescence microscope.

SK-N-SH cells [5] = assay: Reactive oxygen species by DCF-DA staining against amyloid beta; format: cell-based, human; conditions: 10 fM for 2 hr, then 20 μM amyloid beta; FIG. 7a
Protocol: For identifying molecular mechanisms governing neuroprotective effects of the present peptides, reactive oxygen species (ROS) known to involve in neurotoxicity of amyloid beta were analyzed. Using a DCF-DA staining method, quantitative determination of reactive oxygen species was performed and microscopic observation was performed.
SK—N—SH cells (ATCC) were first treated with 10 fM SMPs for 2 hr and then with 20 μM amyloid beta protein. Afterwards, cells were incubated for 30 min at 37° C. with 10 μM DCF-DA (6-carboxy-2′,7′-dichloro-dihydrofluoresceine diacetate, dicarboxym-ethylester) dissolved in HCSS buffer solution (20 mM HEPES, 2.3 mM CaCl2, 120 mM NaCl, 10 mM NaOH, 5 mM KC1, 1.6 mM MgCl2, 15 mM glucose) and 2% Pluronic F-127 (suspension additive).

SK-N-SH cells [6] = assay: Mitochondrial membrane potential by TMRE staining against amyloid beta; format: cell-based, human; conditions: 10 fM for 2 hr, then 20 μM amyloid beta for 6 hr; FIGS. 8a-8c
Description: We examined the influence of the present peptides on subcellular mitochondria to play a crucial role in cellular energy generation. It have been already reported that the amyloid beta protein induces elevation of reactive oxygen species in cells and simultaneously results in nuclear fragmentation, dysfunction of mitochondrial membrane and loss of mitochondrial functions. In this regard, we examined the influence of the present peptides on mitochondrial functions relating closely to cell viability.
Using a fluorescent staining with TMRE (tetramethyl rhodamine-ethylester, Molecular Probe), the disruption of mitochondrial membrane potential was measured. The positively charged TMRE is penetrated into mitochondrial membrane with help of mitochondrial membrane potential, and the fluorescent intensities indicate the maintenance of mitochondrial membrane potential. SK—N—SH cells (ATCC) were first treated with 10 fM SMPs for 2 hr and then with 20 μM amyloid beta protein for 6 hr. Afterwards, cells were incubated for 15 min at 37° C. with 100 nM TMRE and the fluorescent intensities were measured using a fluoremetry at excitation wavelength of 549 nm and emission wavelength of 574 nm. The fluorescent images were taken using a fluorescence microscope (Olympus IX70) and CCD camera.

SK-N-SH neuronal cells = assay: Neuronal damage caused by high glucose level; format: cell-based, human; conditions: 35 mM glucose, 3 hr; FIG. 9a
Protocol: Diabetes characterized by high level of glucose causes events to damage cells and tissues. This experiment is to analyze neuroprotective activities of SMPs on SK—N—SH neuronal cells in high level of glucose (35 mM).

p-Akt = p-Akt level on electrophoresis under high glucose; format: cell-based, human; conditions: 35 mM glucose; FIG. 9b
Protocol: To identify molecular mechanisms governing neuroprotective activities of the present peptides on apoptosis of neuronal cells caused by high glucose level, p-Akt and p-JNK were analyzed on electrophoresis.

Compound | prevention of death of dopaminergic neurons (neurotoxicity of 6-OHDA) (dopaminergic neurons) | relief of behavior disorders (amphetamine-induced asymmetric rotation) [1] | decline in learning and memory abilities (passive avoidance) [2] | inhibition of apoptosis of neuronal cells (cell viability, MTT) (SK-N-SH cells [3]) | nuclear fragmentation (SK-N-SH cells [4]) | levels of reactive oxygen species (SK-N-SH cells [5]) | abnormality of mitochondrial membrane (TMRE fluorescence) (SK-N-SH cells [6]) | inhibition of apoptosis caused by high glucose level (SK-N-SH neuronal cells) | level of p-Akt (p-Akt) | effect on reactive oxygen species compared to oligo 1 (SK-N-SH cells [5])
COc1ccc2[nH]cc(CCNC(C)=O)c2c1 [melatonin] | effectively prevented | contribute to the relief of behavior disorders | prevent the decline in learning and memory abilities | – | – | – | – | – | – | –
GAGAGVGY [SMP-1, GAGAGVGY] | – | – | – | dramatically inhibit apoptosis of neuronal cells | greatly decreased | decrease in levels of reactive oxygen species at similar extent | little or no abnormality of mitochondrial membrane | effectively inhibits apoptosis | highest level of p-Akt | –
GVGAGY [SMP-4, GVGAGY] | – | – | – | dramatically inhibit apoptosis of neuronal cells | greatly decreased | decrease in levels of reactive oxygen species at similar extent | little or no abnormality of mitochondrial membrane | effectively inhibits apoptosis | – | a little enhanced effects compared to the oligo 1
